PubChem BioAssay (NCI)
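Exposure lasted 48 hours, with cells grown in 96-well plates and compounds tested at five concentrations. GI50 = concentration required for 50% inhibition of growth. TGI: concentration producing complete growth inhibition.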

What was measured:
Assay in all cases: NCI anticancer screen, dose series, 48 h
EKVX NSCLC = system: EKVX NSCLC
HS 578T breast = system: HS 578T breast
UO-31 renal = system: UO-31 renal
RPMI-8226 leukemia = system: RPMI-8226 leukemia
CAKI-1 renal = system: CAKI-1 renal
RXF 393 renal = system: RXF 393 renal
HOP-92 NSCLC = system: HOP-92 NSCLC
A549 NSCLC = system: A549 NSCLC
ACHN renal = system: ACHN renal
SNB-75 CNS = system: SNB-75 CNS

Compound | GI50 (EKVX NSCLC) [µM] | TGI (EKVX NSCLC) [µM] | GI50 (HS 578T breast) [µM] | TGI (HS 578T breast) [µM] | GI50 (UO-31 renal) [µM] | TGI (UO-31 renal) [µM] | GI50 (RPMI-8226 leukemia) [µM] | TGI (RPMI-8226 leukemia) [µM] | GI50 (CAKI-1 renal) [µM] | TGI (CAKI-1 renal) [µM] | GI50 (RXF 393 renal) [µM] | TGI (RXF 393 renal) [µM] | GI50 (HOP-92 NSCLC) [µM] | TGI (HOP-92 NSCLC) [µM] | GI50 (A549 NSCLC) [µM] | TGI (A549 NSCLC) [µM] | GI50 (ACHN renal) [µM] | TGI (ACHN renal) [µM] | TGI (SNB-75 CNS) [µM] | GI50 (SNB-75 CNS) [µM]
C#C[C@]1(O)CC[C@H]2[C@@H]3CC=C4c5nc(Nc6ccccn6)sc5CC[C@]4(C)[C@H]3CC[C@@]21C | 1.72 | 9.14 | 0.421 | 2.4 | 1.21 | 2.64 | 0.182 | 0.602 | 1.26 | 3.1 | 0.218 | 0.468 | 1.8 | 4.43 | 1.94 | 11.1 | 1.37 | 10.2 | – | –
CC(C)c1ccc2nc3ccc(C(=O)NCCN(C)C)cn3c(=O)c2c1 | – | 34.7 | – | 35.6 | – | 29.5 | – | – | – | 45 | – | – | – | – | – | 34.7 | – | 94.2 | 22.5 | –
O=c1nc(-c2ccccc2)c2c3c(cccn13)CCC2 | – | – | – | – | – | > 100 | – | > 100 | – | > 100 | – | > 100 | – | > 100 | – | > 100 | – | > 100 | > 100 | –
CCc1ccccc1NC(=O)C(=O)C(C(=O)c1ccc(OC)cc1)c1ccc(OC)cc1 (configuration not stated) | – | > 100 | – | – | – | > 100 | – | > 100 | – | > 100 | – | – | – | – | – | > 100 | – | > 100 | – | –
COc1ccc(C2C(Cl)C(=O)N2n2cnc3ccccc3c2=O)cc1OC (configuration not stated) | – | > 100 | – | – | – | > 100 | – | > 100 | – | > 100 | – | > 100 | – | – | – | > 100 | – | > 100 | 84.7 | –
COC(=O)c1nc(NN)[nH]c(=O)c1CCCCCc1c(C(=O)OC)[nH]c(NN)cc1=O | – | > 100 | – | – | – | > 100 | – | > 100 | – | > 100 | – | > 100 | – | > 100 | – | > 100 | – | > 100 | > 100 | –
O=c1oc2ccccc2c(O)c1C=NC(=S)c1ccncc1 | – | > 100 | – | – | – | > 100 | – | – | – | > 100 | – | – | – | > 100 | – | > 100 | – | > 100 | > 100 | –
O=C1[C@@H](c2ccc(Cl)cc2)[C@H]2CC=C[C@H]2N1O | – | > 100 | – | – | – | > 100 | – | > 100 | – | > 100 | – | > 100 | – | – | – | > 100 | – | – | > 100 | –
COc1ccc2nc(-c3ccccc3)cc(Nc3cccc(/C(C)=N\O)c3)c2c1 | 19.2 | 86.9 | 9.05 | 79.2 | 9.66 | > 100 | 4.89 | > 100 | 3.23 | 12.9 | – | – | 1.93 | 5.66 | 4.67 | > 100 | 7.29 | > 100 | > 100 | 4.49
COc1ccc(-n2nnc3c(sc4ccccc43)c2=O)cc1 | – | – | – | – | – | – | > 100 | > 100 | – | – | – | – | – | – | – | – | – | – | – | –
COC(=O)C1=CCON(c2ccccc2)C1c1ccccc1 (configuration not stated) | – | > 100 | – | – | – | > 100 | – | > 100 | – | > 100 | – | > 100 | – | – | – | > 100 | – | > 100 | > 100 | –
C[C@]12CC[C@@H]3c4ccc(O)c([N+](=O)[O-])c4CC[C@H]3[C@@H]1CC[C@@H]2NS(=O)(=O)c1ccc(C(F)(F)F)cc1 | – | – | 2.14 | 6.56 | 1.5 | 3.19 | 2.17 | 5.4 | 2.17 | 6.24 | – | – | 1.12 | 2.62 | 1.98 | 6.07 | 2.17 | 6.78 | 5.73 | 1.43
CSc1nc2c(c(O)c(C)c(=O)n2C2OC(COC(C)=O)C(OC(C)=O)C(OC(C)=O)C2OC(C)=O)c(=O)n1C (configuration not stated) | – | > 100 | – | – | – | > 100 | – | > 100 | – | > 100 | – | > 100 | – | > 100 | – | > 100 | – | > 100 | > 100 | –
CC(C)N(C(=O)C12C3C4C1C1C2C3C41C(O)C(C)(C)C)C(C)C (configuration not stated) | – | > 50 | – | – | – | > 50 | – | – | – | > 50 | – | – | – | > 50 | – | > 50 | – | > 50 | > 50 | –
CCC1(Br)C(=O)NC(=O)N(C2CC(O)C(CO)O2)C1N=[N+]=[N-] (configuration not stated) | – | > 100 | – | – | – | > 100 | – | > 100 | – | > 100 | – | > 100 | – | > 100 | – | > 100 | – | > 100 | > 100 | –
COc1cc2cc(Oc3ccc(NC(=O)c4cccc(C(F)(F)F)c4)cc3)c(C)nc2cc1OC | 4.39 | > 100 | 2.97 | 58.4 | 4.59 | > 100 | 3.67 | > 100 | 2.75 | > 100 | 6.07 | > 100 | 3.08 | 33.2 | 4.28 | > 100 | 3.6 | > 100 | – | –
COc1ccc([C@H]2CC(=O)N3CCCC3N2)cc1 (some centres not stated) | – | > 100 | – | – | – | > 100 | – | > 100 | – | > 100 | – | > 100 | – | > 100 | – | > 100 | – | > 100 | > 100 | –
Cc1cc(C)c2c(c1)CN1CN2Cc2cc(C)cc(C)c21 | – | 35.1 | – | – | – | 43.5 | – | 52.2 | – | > 100 | – | 22.4 | – | – | – | > 100 | – | 35.9 | 24.8 | –
Nc1nc2c(ncn2Cc2ccccc2CCO)c(=O)[nH]1 | – | > 100 | – | – | – | > 100 | – | > 100 | – | > 100 | – | > 100 | – | > 100 | – | > 100 | – | > 100 | > 100 | –
CC1(C)C(=O)C(O)=CC2C1=CCC1C2(C)C(=O)CC2(C)C(C(C)(O)C(=O)CC(O)C(C)(C)O)C(O)CC12C (configuration not stated) | – | 38.8 | – | – | – | 4.49 | – | 19.1 | – | 5.1 | – | 5.54 | – | 4.56 | – | > 74.1 | – | 16.2 | 4.77 | 1.74
Nc1c(C(=O)Nc2ccc([As](=O)(O)O)cc2)cnc2nnnn12 | – | > 100 | – | – | – | > 100 | – | > 100 | – | > 100 | – | > 100 | – | > 100 | – | > 100 | – | > 100 | > 100 | –
